# According to patent US9981916B2 (Genentech, Inc., priority 2013, dated 2018):
# Biological target: T1, RORc ligand binding domain (Homo sapiens, UniProt P51449)
# T1 construct: host or cells: E. coli
# T1 sequence (P51449 269-508 limits assumed): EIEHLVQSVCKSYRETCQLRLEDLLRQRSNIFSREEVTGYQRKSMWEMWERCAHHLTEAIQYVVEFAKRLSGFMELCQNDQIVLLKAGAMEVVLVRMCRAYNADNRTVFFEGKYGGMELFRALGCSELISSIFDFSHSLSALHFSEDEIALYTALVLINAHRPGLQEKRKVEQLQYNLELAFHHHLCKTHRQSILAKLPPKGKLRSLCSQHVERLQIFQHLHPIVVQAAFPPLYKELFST
# Assay: In vitro RORc ligand binding assay (25-[3H]hydroxycholesterol displacement, filter binding)
# Details: 6 nM 25-[3H]hydroxycholesterol, 0.6 ug/mL RORc receptor, 3 h at 25° C.
# Method in brief: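 Filter-binding displacement of 6 nM 25-[3H]hydroxycholesterol from RORc receptor (0.6 ug/mL) in 50 mM HEPES pH 7.4, 150 mM NaCl, 5 mM MgCl2, 1 mM DTT, 0.01% BSA, 5% DMSO; 3 h at 25° C. NSB defined with 1 uM 25-hydroxycholesterol; scintillation counting gave Kiapp, IC50 or % inhibition (screening at 1 and 10 uM).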
row,SMILES,IC50
1,"CC(C)CNC(=O)[C@]12CC[C@H](c3cc(-c4ccccc4F)nnc31)C2(C)C [Example 131, (5S,8S)-3-(2-fluorophenyl)-N-isobutyl-9,9-dimethyl-5,6,7,8-tetrahydro-5,8-methanocinnoline-8-carboxamide]",1330 nM
2,"CC(C)(C)OC(=O)NCCC1CN(C(=O)[C@]23CC[C@H](c4cc(-c5c(F)cccc5F)nnc42)C3(C)C)C1 [Example 168, tert-butyl (2-(1-((5S,8S)-3-(2,6-difluorophenyl)-9,9-dimethyl-5,6,7,8-tetrahydro-5,8-methanocinnoline-8-carbonyl)azetidin-3-yl)ethyl)carbamate]",2970 nM
3,"CNC(=O)C1CCCN1C(=O)[C@]12CC[C@H](c3cc(-c4c(F)cccc4F)nnc31)C2(C)C (stereo partly drawn) [Example 243, 1-((5S,8S)-3-(2,6-difluorophenyl)-9,9-dimethyl-5,6,7,8-tetrahydro-5,8-methanocinnoline-8-carbonyl)-N-methylpyrrolidine-2-carboxamide]",2950 nM
4,"CC(=O)NCC(=O)N(CCO)C[C@@]12CC[C@@H](c3cc(-c4c(F)cccc4F)nnc31)C2(C)C [Example 298, 2-acetamido-N-(((5R,8S)-3-(2,6-difluorophenyl)-9,9-dimethyl-5,6,7,8-tetrahydro-5,8-methanocinnolin-8-yl)methyl)-N-(2-hydroxyethyl)acetamide]",705 nM
5,"CC(=O)N[C@@]12CC[C@@H](c3cc(-c4ccccc4F)nnc31)C2(C)C [Example 81, N-[(5R,8R)-3-(2-fluorophenyl)-9,9-dimethyl-6,7-dihydro-5,8-methanocinnolin-8(5H)-yl]acetamide]",2070 nM
6,"CC1(C)C2CCC1(C(=O)N1CC(N3CC[C@H](F)C3)C1)c1nnc(-c3c(F)cccc3F)cc12 (stereo in doubt) [Example 248, ((5S,8S)-3-(2,6-difluorophenyl)-9,9-dimethyl-5,6,7,8-tetrahydro-5,8-methanocinnolin-8-yl)(3-((S)-3-fluoropyrrolidin-1-yl)azetidin-1-yl) methanone]",387 nM
7,"CC1(C)[C@H]2CC[C@]1(COc1cncc(=O)[nH]1)c1nnc(-c3c(F)cccc3F)cc12 [Example 330, 6-(((5R,8R)-3-(2,6-difluorophenyl)-9,9-dimethyl-5,6,7,8-tetrahydro-5,8-methanocinnolin-8-yl)methoxy)pyrazin-2(1H)-one]",1980 nM
8,"CN(C)C(=O)C1CCN(C(=O)[C@]23CC[C@H](c4cc(-c5c(F)cccc5F)nnc42)C3(C)C)C1 (stereo partly drawn) [Example 211, 1-((5S,8S)-3-(2,6-difluorophenyl)-9,9-dimethyl-5,6,7,8-tetrahydro-5,8-methanocinnoline-8-carbonyl)-N,N-dimethylpyrrolidine-3-carboxamide]",726 nM
9,"CC1(C)[C@H]2CC[C@]1(C(=O)N1CC(F)(F)C1)c1nnc(-c3ccccc3F)cc12 [Example 172, (3,3-difluoroazetidin-1-yl)((5R,8R)-3-(2-fluorophenyl)-9,9-dimethyl-5,6,7,8-tetrahydro-5,8-methanocinnolin-8-yl)methanone]",1410 nM
10,"CC1(C)[C@H]2CC[C@]1(C(=O)N1CC(c3cc[nH]n3)C1)c1nnc(-c3ccccc3F)cc12 [Example 182, (3-(1H-pyrazol-3-yl)azetidin-1-yl)((5R,8R)-3-(2-fluorophenyl)-9,9-dimethyl-5,6,7,8-tetrahydro-5,8-methanocinnolin-8-yl)methanone]",3000 nM
11,"CC1(C)[C@@H]2CC[C@@]1(CN1CCN(CCN3CCOCC3)C1=O)c1nnc(-c3ccccc3F)cc12 [Example 48, 1-{[(5S,8R)-3-(2-fluorophenyl)-9,9-dimethyl-6,7-dihydro-5,8-methanocinnolin-8(5H)-yl]methyl}-3-[2-(morpholin-4-yl)ethyl]imidazolidin-2-one]",643 nM
12,"C[C@H](O)C(=O)N(CCC#N)C[C@@]12CC[C@@H](c3cc(-c4c(F)cccc4F)nnc31)C2(C)C [Example 324, (S)-N-(2-cyanoethyl)-N-(((5R,8S)-3-(2,6-difluorophenyl)-9,9-dimethyl-5,6,7,8-tetrahydro-5,8-methanocinnolin-8-yl)methyl)-2-hydroxypropanamide]",732 nM
13,"CN(C)C(=O)N[C@@]12CC[C@@H](c3cc(-c4c(F)cccc4F)nnc31)C2(C)C [Example 320, 3-((5R,8R)-3-(2,6-difluorophenyl)-9,9-dimethyl-5,6,7,8-tetrahydro-5,8-methanocinnolin-8-yl)-1,1-dimethylurea]",1500 nM
14,"CONC(=O)[C@]12CC[C@H](c3cc(-c4c(F)cccc4F)nnc31)C2(C)C [Example 91, (5S,8S)-3-(2,6-difluorophenyl)-N-methoxy-9,9-dimethyl-6,7-dihydro-5,8-methanocinnoline-8(5H)-carboxamide]",384 nM

# Now those with a lower IC50, led by results:
row,IC50,SMILES
1,22 nM,"CCN(C[C@@]12CC[C@@H](c3cc(-c4c(F)cccc4F)nnc31)C2(C)C)c1nnc(CO)o1 [Example 296, (5-((((5R,8S)-3-(2,6-difluorophenyl)-9,9-dimethyl-5,6,7,8-tetrahydro-5,8-methanocinnolin-8-yl)methyl)(ethyl)amino)-1,3,4-oxadiazol-2-yl)methanol]"
2,46 nM,"CCN(C[C@@]12CC[C@@H](c3cc(-c4c(F)cccc4F)nnc31)C2(C)C)S(C)(=O)=O [Example 156, N-(((5R,8S)-3-(2,6-difluorophenyl)-9,9-dimethyl-5,6,7,8-tetrahydro-5,8-methanocinnolin-8-yl)methyl)-N-ethylmethanesulfonamide]"
3,146 nM,"Cn1nccc1[C@@]12CC[C@@H](c3cc(-c4c(F)cccc4F)nnc31)C2(C)C [Example 275, (5R,8S)-3-(2,6-difluorophenyl)-9,9-dimethyl-8-(1-methyl-1H-pyrazol-5-yl)-5,6,7,8-tetrahydro-5,8-methanocinnoline]"
4,21 nM,"CCNC(=O)N(CC)C[C@@]12CC[C@@H](c3cc(-c4c(F)cccc4F)nnc31)C2(C)C [Example 288, 1-(((5R,8S)-3-(2,6-difluorophenyl)-9,9-dimethyl-5,6,7,8-tetrahydro-5,8-methanocinnolin-8-yl)methyl)-1,3-diethylurea]"
5,271 nM,"CC1(C)[C@H]2CC[C@]1(COc1cnccn1)c1nnc(-c3c(F)cccc3F)cc12 [Example 329, (5R,8R)-3-(2,6-difluorophenyl)-9,9-dimethyl-8-((pyrazin-2-yloxy)methyl)-5,6,7,8-tetrahydro-5,8-methanocinnoline]"
6,321 nM,"CC1(C)[C@H]2CC[C@]1(CN1CCNC1=O)c1nnc(-c3c(F)cccc3F)cc12 [Example 268, 1-(((5R,8S)-3-(2,6-difluorophenyl)-9,9-dimethyl-5,6,7,8-tetrahydro-5,8-methanocinnolin-8-yl)methyl)imidazolidin-2-one]"
7,211 nM,"CCNC(=O)[C@]12CC[C@H](c3cc(-c4ccccc4F)nnc31)C2(C)C [Example 134, (5S,8S)-N-ethyl-3-(2-fluorophenyl)-9,9-dimethyl-5,6,7,8-tetrahydro-5,8-methanocinnoline-8-carboxamide]"
8,327 nM,"CC1(C)[C@@H]2CC[C@@]1(C(=O)N1CCCC1C(F)(F)F)c1nnc(-c3c(F)cccc3F)cc12 (stereo partly drawn) [Example 224, ((5S,8S)-3-(2,6-difluorophenyl)-9,9-dimethyl-5,6,7,8-tetrahydro-5,8-methanocinnolin-8-yl)(2-(trifluoromethyl)pyrrolidin-1-yl)methanone]"
9,52 nM,"CN([C@@]12CC[C@@H](c3cc(-c4c(F)cccc4F)nnc31)C2(C)C)S(=O)(=O)C(F)(F)F [Example 319, N-((5R,8R)-3-(2,6-difluorophenyl)-9,9-dimethyl-5,6,7,8-tetrahydro-5,8-methanocinnolin-8-yl)-1,1,1-trifluoro-N-methylmethanesulfonamide]"
10,232 nM,"CC1(C)[C@@H]2CC[C@@]1(C(=O)N1CC(n3cccn3)C1)c1nnc(-c3c(F)cccc3F)cc12 [Example 232, (3-(1H-pyrazol-1-yl)azetidin-1-yl)((5S,8S)-3-(2,6-difluorophenyl)-9,9-dimethyl-5,6,7,8-tetrahydro-5,8-methanocinnolin-8-yl)methanone]"
11,17 nM,"CC1(C)[C@H]2CC[C@]1(c1ncco1)c1nnc(-c3c(F)cccc3F)cc12 [Example 102, (5R,8R)-3-(2,6-difluorophenyl)-9,9-dimethyl-8-(1,3-oxazol-2-yl)-5,6,7,8-tetrahydro-5,8-methanocinnoline]"
12,219 nM,"CN([C@@]12CC[C@@H](c3cc(-c4c(F)cccc4F)nnc31)C2(C)C)S(C)(=O)=O [Example 286, N-((5R,8R)-3-(2,6-difluorophenyl)-9,9-dimethyl-5,6,7,8-tetrahydro-5,8-methanocinnolin-8-yl)-N-methylmethanesulfonamide]"
13,56 nM,"CCN(CC(N)=O)C[C@@]12CC[C@@H](c3cc(-c4c(F)cccc4F)nnc31)C2(C)C [Example 304, 2-((((5R,8S)-3-(2,6-difluorophenyl)-9,9-dimethyl-5,6,7,8-tetrahydro-5,8-methanocinnolin-8-yl)methyl)(ethyl)amino) acetamide]"
14,45 nM,"CCOC(=O)N(CCC#N)C[C@@]12CC[C@@H](c3cc(-c4c(F)cccc4F)nnc31)C2(C)C [Example 312, ethyl (2-cyanoethyl)(((5R,8S)-3-(2,6-difluorophenyl)-9,9-dimethyl-5,6,7,8-tetrahydro-5,8-methanocinnolin-8-yl)methyl)carbamate]"
15,12 nM,"CCN(C[C@@]12CC[C@@H](c3cc(-c4c(F)cccc4F)nnc31)C2(C)C)c1cccc(=O)[nH]1 [Example 301, 6-((((5R,8S)-3-(2,6-difluorophenyl)-9,9-dimethyl-5,6,7,8-tetrahydro-5,8-methanocinnolin-8-yl)methyl)(ethyl)amino) pyridin-2(1H)-one]"
